Assay results reported in patent US20180147131A1, “COMPOSITION FOR ORAL CAVITY AND FOOD PRODUCT, OR BEVERAGE” (KABUSHIKI KAISHA SANGI, priority 2015, published 2018).

Experiment: Remineralization test (artificial incipient caries, contact microradiogram, computer image analysis)
Parameters: species or system bovine
Settings: conclusion from the remineralization tests of Examples and Comparative Examples
Text: In order to confirm the remineralizing effect, a previously made artificial incipient caries test sample was used. For the making of the artificial incipient caries test sample, enamel on the labial surface of the crown portion of a bovine front tooth was used. The enamel surface was abraded with #1000, #2400, and #4000 abrasive paper. A window of about 5×3 mm was made with Nail Enamel (Manufactured by Shiseido Company, Limited) at a site to be tested, on the abraded enamel surface, and immersed in a 0.1 M lactate buffer solution (pH 4.8, 3.0 mmM CaCl2, 1.8 mmM KH2PO4, 1.0% CMC) at 37° C. for 4 days to make artificial incipient caries. […]
The effect of remineralizing the artificial incipient caries site was analyzed using a computer.
In image analysis by the computer, the amount of the remineralized mineral was calculated based on the formula of Angmer et al. (B. Angmer, D. Carlstrom and J. E. Glas: Studies on Ultrastructure of Dental Enemel IV: The Mineralization of normal Human Enamel, J. Ultrastructure. Res. 8, 12-23, 1963), and the amounts of the mineral lost AZ (% volume mineral·μm) at the control surface and treated surface of each section were calculated according to the method of Damato et al. (F. A. Damato, R. Stang and K. W. Stephen: Effect of Fluoride Concentration on Reminerelization of Carious Enamel: an in vitro pH-Cycling Study, Caries Res, 24, 174-180, 1990). […]

sodium chondroitin sulfate
tooth remineralizing effect (in words): little tooth remineralizing effect
